In PubChem BioAssay AID1963845 (Molecular Pharmacology Branch, DTP, NCI, 2024):

Test system: 429239-143-T-J1-PDC complex spheroid viability
Assay: Anticancer human tumor 429239-143-T-J1-PDC patient-derived small cell lung carcinoma cell line growth inhibition [POLQ]
Conditions: for IC50: curve of first compound; for viability, T/C: stronger effect = lower value
Method in brief: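 Growth inhibition in 3D: complex spheroids (tumor PDC, HUVEC, MSC) treated with POLQ inhibitor combinations; where Cmax unknown, highest tested concentration 10 microM, except SN-38 at 1 microM.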
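Further: luminescence signal used as surrogate measure of viable cells; spheroids exposed to compounds for seven days before readout.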
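Wherever viability, T/C is given: 100% = DMSO vehicle control viability as luminescence relative to vehicle.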

Compound `C#Cc1c(F)ccc2cc(O)cc(-c3ncc4c(N5CC6CCC(C5)N6)nc(OCC56CCCN5CC(F)C6)nc4c3F)c12` (configuration not stated) + COC1C(OC(N)=O)C(O)C(Oc2ccc3c(O)c(NC(=O)c4ccc(O)c(CC=C(C)C)c4)c(=O)oc3c2C)OC1(C)C has an IC50 (second compound 0.0316 µM) of over 10 µM, an IC50 (second compound 0.1 µM) of over 10 µM and an IC50 (second compound 0.316 µM) of over 10 µM. It also gave an IC50 (second compound 1 µM) of over 10 µM, an IC50 (second compound 3.16 µM) of over 10 µM and an IC50 (second compound 10 µM) of over 10 µM. For the same compound, the viability, T/C (second compound 0.0316 µM, first compound 0.0316 µM) was 109%, the viability, T/C (second compound 0.0316 µM, first compound 0.1 µM) was 92.7% and the viability, T/C (second compound 0.0316 µM, first compound 0.316 µM) was 113%. The viability, T/C (second compound 0.0316 µM, first compound 1 µM) was 92.9%, the viability, T/C (second compound 0.0316 µM, first compound 3.16 µM) was 99.9% and the viability, T/C (second compound 0.0316 µM, first compound 10 µM) was 92.9%. The viability, T/C (second compound 0.1 µM, first compound 0.0316 µM) was 104%, the viability, T/C (second compound 0.1 µM, first compound 0.1 µM) was 113% and the viability, T/C (second compound 0.1 µM, first compound 0.316 µM) was 103%. It also gave a viability, T/C (second compound 0.1 µM, first compound 1 µM) of 97.7%, a viability, T/C (second compound 0.1 µM, first compound 3.16 µM) of 93.2% and a viability, T/C (second compound 0.1 µM, first compound 10 µM) of 91.1%. The viability, T/C (second compound 0.316 µM, first compound 0.0316 µM) was 104%, the viability, T/C (second compound 0.316 µM, first compound 0.1 µM) was 95.3% and the viability, T/C (second compound 0.316 µM, first compound 0.316 µM) was 99.2%. The viability, T/C (second compound 0.316 µM, first compound 1 µM) was 98.8%, the viability, T/C (second compound 0.316 µM, first compound 3.16 µM) was 95.2% and the viability, T/C (second compound 0.316 µM, first compound 10 µM) was 106%. The viability, T/C (second compound 1 µM, first compound 0.0316 µM) was 94.7%, the viability, T/C (second compound 1 µM, first compound 0.1 µM) was 106% and the viability, T/C (second compound 1 µM, first compound 0.316 µM) was 96%. The viability, T/C (second compound 1 µM, first compound 1 µM) was 105%, the viability, T/C (second compound 1 µM, first compound 3.16 µM) was 98.8% and the viability, T/C (second compound 1 µM, first compound 10 µM) was 97.4%. It also gave a viability, T/C (second compound 3.16 µM, first compound 0.0316 µM) of 103%, a viability, T/C (second compound 3.16 µM, first compound 0.1 µM) of 101% and a viability, T/C (second compound 3.16 µM, first compound 0.316 µM) of 102%. The viability, T/C (second compound 3.16 µM, first compound 1 µM) was 92.9%, the viability, T/C (second compound 3.16 µM, first compound 3.16 µM) was 114% and the viability, T/C (second compound 3.16 µM, first compound 10 µM) was 98.2%. For the same compound, the viability, T/C (second compound 10 µM, first compound 0.0316 µM) was 101%, the viability, T/C (second compound 10 µM, first compound 0.1 µM) was 98.7% and the viability, T/C (second compound 10 µM, first compound 0.316 µM) was 91.5%. It also gave a viability, T/C (second compound 10 µM, first compound 1 µM) of 92.5%, a viability, T/C (second compound 10 µM, first compound 3.16 µM) of 106% and a viability, T/C (second compound 10 µM, first compound 10 µM) of 102%.
